Test results reported in ChEMBL document CHEMBL3430912, “GSK Tres Cantos Anti-Kinetoplastid Screening (TCAKS) Data”.

How the values were obtained:
Leishmania donovani [1] = experiment: GSK_TCAKS: pIC50 Leishmania donovani Imaging: Infected Macrophages. Assay plates (384-well) were prepared by adding 250nL of compound to each well. For single shot assay, the final compound concentration was 5 uM. […] Automated image analysis was performed with a script developed on Acapella High Content Imaging and Analysis Software (PerkinElmer). Output: Percent of infected macrophage cells were reported for each well.; type: functional, organism-based, Homo sapiens; conditions: THP-1
[2] = GSK_TCAKS: pIC50 HepG2 human cell line viability assay using luminiscence. […] Seeding density was checked to ensure that new mono-layers were not more than 50% confluent at the time of harvesting. Cell suspension was added to 500 mL of the same medium at a final density of 1.2 * 10^5 cells/mL. This cell suspension was dispensed (25 uL, 3000 cells per well) into 384-well clear-bottom plates using a Multidrop Combi dispenser. Prior to addition of the cell suspension, the screening compounds (250 nL) were pre-dispensed into the plates with an Echo liquid handler. Plates were incubated for 48 h at 37C, 5% CO2. After incubation, plates equilibrated at room temperature for 30 min before proceeding to develop the luminescent signal. The signal developer, CellTiter-Glo Reagent, was allowed to equilibrate at room temperature for 30 min and added to the plates (25uL per well) using a Multidrop Combi dispenser. Plates were left for 10 min at room temperature for stabilization and then read using a ViewLux.; type: toxicity, cell-based
Leishmania donovani [3] = experiment: GSK_TCAKS: pIC50 Leishmania donovani Imaging: Amastigotes/Macrophages. Assay plates (384-well) were prepared by adding 250nL of compound to each well. For single shot assay, the final compound concentration was 5 uM. […] Automated image analysis was performed with a script developed on Acapella High Content Imaging and Analysis Software (PerkinElmer). Output: Average number of amastigotes per macrophage cell were reported for each well.; type: functional, organism-based, Homo sapiens; conditions: THP-1
Trypanosoma cruzi [4] = experiment: GSK_TCAKS: pIC50 Trypanosoma cruzi viability assay using beta-GAL activity. This assay was run at single shot at 5uM compound concentration per well. The biological reagents consisted of NIH-3T3 host cells and trypomastigotes parasitic cells; both cell types were set to a 3.3 * 10^5 cells/mL dilution in assay DMEM by means of a CASY cell counter device using a 60um capillary. 6 uL of the mixture were dispensed per well (about 1 * 10^3 host-cells and 1 * 10^3 parasites) with a Multidrop Combi dispenser. […] In all wells, the percentage of DMSO never exceeded 0.5%. Plates incubated for four days at 37C, 5% CO2. The substrate used for the assay fluorescence intensity (FLINT) readout was resorufin-beta-D-galactopiranoside (Sigma-Aldrich) at 5uM per well. It was diluted in PBS supplemented with the soft detergent Igepal (Fluka).; type: functional, organism-based, Mus musculus; conditions: Tulahuen, NIH3T3
[5] = biological target: Sterol 14-alpha demethylase (Trypanosoma cruzi (strain CL Brener), UniProt Q7Z1V1); experiment: GSK_TCAKS: pIC50 CYP51 from Trypanosoma cruzi.; type: functional
[6] = test system: Trypanosoma brucei brucei; experiment: GSK_TCAKS: pIC50 Trypanosoma brucei viability assay using luminiscence. Assay plates (1536-well) were prepared. T. brucei cultures were harvested and counted in a CASY cell counter. A parasite suspension was prepared at a final concentration of 5 * 10^4 cells/mL in complete HMI9 medium and 6uL was dispensed to all wells containing compounds using a Multidrop Combi dispenser. 6uL of HMI9 media with 0.4% DMSO were dispensed to control columns. Plates were incubated for 24 h at 37C, 5% CO2 then tempered for 10 min at room temperature. ATP content was quantified by adding 4 uL of CellTiter-Glo Reagent (Promega) according to the manufacturer's instructions. Luminescence was measured using a ViewLux.; type: functional, organism-based; conditions: Lister 427, CASY
NIH3T3 = experiment: GSK_TCAKS: pIC50 NIH 3T3 cell line viability assay using luminiscence. Tissue culture surface treated assay plates (1536-well) were used. […] The 100% cells survival control was determined exposing the host-cells to a 0.5% DMSO concentration, whereas the 100% toxicity control was achieved by seeding the cells in presence of Amphotericin B at 50uM. Plates were incubated for four days at 37C, 5% CO2. The assay readout was developed by addition of 5uL of CellTiter-Glo Reagent following the manufacturer's instructions. Luminiscence was measured using a ViewLux.; type: functional, cell-based; conditions: Mus musculus, NIH3T3, 96 h
Trypanosoma cruzi [7] = experiment: (§1) GSK_TCAKS: pIC50 Trypanosoma cruzi Imaging: Amastigotes/Cell. […] Cells were then washed once with PBS before infection. T. cruzi trypomastigotes, collected at days 5 to 8 after infection from LLC-MK2 parasite infected cultures, were allowed to swim out for 4h at 37C from a centrifuged pellet (2,500 rpm/10 min/room temperature). Trypomastigotes were then collected and counted in a CASY Cell Counter. Trypomastigotes, in supplemented DMEM, were added to H9c2 cultures in a multiplicity of infection of 1 and incubated for 18 h. Cells were washed once with PBS before incubation of the infected H9c2 monolayer with trypsin (Life-Technologies) to detach cells from the flask. Cells were counted in a CASY Cell Counter using a 150 um capillary and their density set at 5 * 10^4 cells per mL in supplemented assay DMEM. Infected H9c2 were dispensed into 384-well poly-lysine coated assay plates at 50uL per well using a Multidrop Combi dispenser. After seeding them, the plates were incubated at 37C, 5% CO2 for 72h. Cultures were then fixed and stained by addition of 50 uL of a solution containing 8% formaldehyde and 4 uM DRAQ5 DNA dye (BioStatus, UK) per well. […] Five images were collected per well for reliable statistical analysis. Automated image analysis was performed with a script developed on Acapella High Content Imaging and Analysis Software (PerkinElmer). Output: number of amastigotes per cell as infection level measurement.; type: functional, organism-based, Rattus norvegicus; conditions: H9c2, 4 h
Leishmania donovani [8] = experiment: GSK_TCAKS: pIC50 Leishmania donovani Imaging: THP-1 Host Macrophages. Assay plates (384-well) were prepared by adding 250nL of compound to each well. For single shot assay, the final compound concentration was 5 uM. […] Automated image analysis was performed with a script developed on Acapella High Content Imaging and Analysis Software (PerkinElmer). Output: THP-1 cell count were reported for each well.; type: functional, organism-based, Homo sapiens
Trypanosoma cruzi [9] = experiment: as §1, with “H2C9” for “Trypanosoma cruzi”, “H9c2 Host Cardiomyocytes.” for “Amastigotes/Cell.”, “Number” for “number”, “H9c2 Host Cardiomyocytes nuclei to determine drug-related cytotoxicity.” for “amastigotes per cell as infection level measurement.”; type: functional, organism-based, Rattus norvegicus; conditions: H9c2, 4 h
Trypanosoma cruzi [10] = experiment: GSK_TCAKS: pIC50 Trypanosoma cruzi Imaging: Infected Cells. […] Cells were then washed once with PBS before infection. T. cruzi trypomastigotes, collected at days 5 to 8 after infection from LLC-MK2 parasite infected cultures, were allowed to swim out for 4h at 37C from a centrifuged pellet (2,500 rpm/10 min/room temperature). Trypomastigotes were then collected and counted in a CASY Cell Counter. Trypomastigotes, in supplemented DMEM, were added to H9c2 cultures in a multiplicity of infection of 1 and incubated for 18 h. Cells were washed once with PBS before incubation of the infected H9c2 monolayer with trypsin (Life-Technologies) to detach cells from the flask. Cells were counted in a CASY Cell Counter using a 150 um capillary and their density set at 5 * 10^4 cells per mL in supplemented assay DMEM. Infected H9c2 were dispensed into 384-well poly-lysine coated assay plates at 50uL per well using a Multidrop Combi dispenser. After seeding them, the plates were incubated at 37C, 5% CO2 for 72h. Cultures were then fixed and stained by addition of 50 uL of a solution containing 8% formaldehyde and 4 uM DRAQ5 DNA dye (BioStatus, UK) per well. […] Five images were collected per well for reliable statistical analysis. Automated image analysis was performed with a script developed on Acapella High Content Imaging and Analysis Software (PerkinElmer). Output: percentage of infected cells per well as a second infection marker.; type: functional, organism-based, Rattus norvegicus; conditions: H9c2, 4 h
Leishmania donovani [11] = experiment: GSK_TCAKS: pIC50 Leishmania donovani viability assay using fluorescence intensity. Assay plates (1536-well) were prepared by adding 30nL per well of compound. For single shot assay, the final compound concentration was 5uM. […] Briefly, eGFP LdBOB axenic amastigotes were harvested, fixed and counted in a CASY cell counter (Roche-Applied Science). A final concentration of 1.5 * 10^5 cells per well were prepared in amastigote media containing 500 U/mL penicillin/streptomycin (Invitrogen) and 6uL was dispensed to each experimental well using a Multidrop Combi dispenser (Thermo Scientific). 6uL of assay media was dispensed to control columns used as reference for 100% compound response. Following incubation for 72 h at 37C, 5% CO2, 2 uL of resazurin was added to each well at a final concentration of 0.5 mM in phosphate buffered saline (PBS) with IGEPAL (Sigma-Aldrich), 0.05% (v/v).; type: functional, organism-based
[12] = test system: Trypanosoma brucei brucei; experiment: GSK_TCAKS: pIC50 Trypanosoma brucei viability assay using fluorescence intensity. Assay plates (1536-well) were prepared by dispensing 25nL of compound solution per well using an Echo acoustic dispenser (Labcyte).; type: functional, organism-based; conditions: Lister 427, 2 h

Chain of Sterol 14-alpha demethylase (Q7Z1V1 whole entry): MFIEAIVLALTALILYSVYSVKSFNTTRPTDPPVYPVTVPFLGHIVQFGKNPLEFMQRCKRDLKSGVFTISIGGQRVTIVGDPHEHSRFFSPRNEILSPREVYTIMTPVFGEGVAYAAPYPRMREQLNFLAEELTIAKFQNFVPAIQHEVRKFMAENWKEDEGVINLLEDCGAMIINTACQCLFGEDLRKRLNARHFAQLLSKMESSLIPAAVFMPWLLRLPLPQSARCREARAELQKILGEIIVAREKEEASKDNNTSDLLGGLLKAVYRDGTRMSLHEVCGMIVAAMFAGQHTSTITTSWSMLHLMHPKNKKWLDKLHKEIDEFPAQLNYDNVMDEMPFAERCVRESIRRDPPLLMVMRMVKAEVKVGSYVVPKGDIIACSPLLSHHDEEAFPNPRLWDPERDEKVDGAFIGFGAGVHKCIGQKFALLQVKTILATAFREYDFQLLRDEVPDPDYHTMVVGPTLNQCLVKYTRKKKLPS

| SMILES | IC50 (Leishmania donovani [1]) | IC50 at 48 h [2] | IC50 (Leishmania donovani [3]) | IC50 (Trypanosoma cruzi [4]) | IC50 [5] | IC50 [6] | IC50 (NIH3T3) | IC50 (Trypanosoma cruzi [7]) | IC50 (Leishmania donovani [8]) | IC50 (Trypanosoma cruzi [9]) | IC50 (Trypanosoma cruzi [10]) | IC50 (Leishmania donovani [11]) | IC50 [12] |
| --- | --- | --- | --- | --- | --- | --- | --- | --- | --- | --- | --- | --- | --- |
| O=c1ccc2ccc(F)c3c2n1C[C@H]3CN1CCC(NCc2cc3ccccc3o2)CC1 | 20 µM | 39.8 µM | 12.6 µM | 398 nM | 31.6 µM | 2 µM | 20 µM | 126 nM | 31.6 µM | 31.6 µM | 200 nM | 15.8 µM | 0.631 µM |
| O=c1oc2ccccc2n1C1CCN(Cc2ccccc2-c2cccnc2)CC1 | > 50.1 µM | > 100 µM | 6.31 µM | 501 nM | 0.1 µM | > 39.8 µM | 15.8 µM | 398 nM | 12.6 µM | > 50.1 µM | 316 nM | > 50.1 µM | 39.8 µM |
| CN(Cc1nnnn1C1CCN(Cc2ccc(-n3ccnc3)cc2)CC1)c1ccc(F)cc1F | > 50.1 µM | > 100 µM | 15.8 µM | 316 nM | 0.126 µM | > 39.8 µM | 25.1 µM | 316 nM | > 50.1 µM | > 50.1 µM | 316 nM | > 50.1 µM | > 39.8 µM |
| CS(=O)(=O)c1cccc(-c2cnc(N)c3c(-c4ccc(CO)cc4)csc23)c1 | 10 µM | > 100 µM | 7.94 µM | 794 nM | 3.16 µM | 5.01 µM | 25.1 µM | 316 nM | > 50.1 µM | > 50.1 µM | 631 nM | 39.8 µM | 2 µM |
| O=C(NC(c1ccc(Cl)cc1)c1cnccn1)C1CCN(C(=O)Nc2cccc(C(F)(F)F)c2)CC1 (stereo unspecified) | > 50.1 µM | > 100 µM | > 50.1 µM | 631 nM | 0.126 µM | 6.31 µM | 39.8 µM | 501 nM | 39.8 µM | > 50.1 µM | 631 nM | 20 µM | 12.6 µM |
| CC(=O)Nc1ccc(-c2csc(NC(=O)c3ccc([N+](=O)[O-])s3)n2)cc1 | 1 µM | 50.1 µM | 0.794 µM | 126 nM | 6.31 µM | 0.158 µM | 6.31 µM | 100 nM | 12.6 µM | 5.01 µM | 126 nM | 0.398 µM | 0.0251 µM |
| CC(C)Oc1cccc(N2CCC(C(=O)N3CCCN(C(C)C)CC3)CC2)c1 | > 50.1 µM | > 100 µM | > 50.1 µM | 1260 nM | > 100 µM | > 39.8 µM | 31.6 µM | 251 nM | > 50.1 µM | > 50.1 µM | 631 nM | > 50.1 µM | > 39.8 µM |
